# Where two headings read alike, the source gives them in different places.
# Target: T1, IRAK4 (Homo sapiens, UniProt Q9NWZ3)
# T1 construct: Degradation of IRAK4 in OCI-LY10 was quantitatively measured using Meso Scale Discovery technology; endogenous in cells; host or cells: OCI-LY10
# T1 sequence (Q9NWZ3 1-460): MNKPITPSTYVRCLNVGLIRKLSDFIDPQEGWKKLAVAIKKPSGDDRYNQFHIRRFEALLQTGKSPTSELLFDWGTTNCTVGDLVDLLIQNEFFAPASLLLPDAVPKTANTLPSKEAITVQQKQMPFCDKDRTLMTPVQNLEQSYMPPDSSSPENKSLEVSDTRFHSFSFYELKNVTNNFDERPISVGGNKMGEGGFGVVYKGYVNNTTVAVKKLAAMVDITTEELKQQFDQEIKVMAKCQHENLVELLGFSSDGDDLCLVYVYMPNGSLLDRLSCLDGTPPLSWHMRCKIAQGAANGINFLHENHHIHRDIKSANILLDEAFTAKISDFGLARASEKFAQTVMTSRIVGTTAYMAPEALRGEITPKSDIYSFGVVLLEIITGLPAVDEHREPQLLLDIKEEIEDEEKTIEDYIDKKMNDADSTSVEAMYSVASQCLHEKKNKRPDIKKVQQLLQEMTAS
# Assay: IRAK4 MSD Degradation in OCI-LY10
# Format: cell-based
# Conditions: OCI-LY10 cells, MSD
# Method in brief: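 OCI-LY10 cells exposed to 8-point 1:3 compound series (top 1 to 10 μM) for 4 to 24 h at 37 °C, 5% CO2. Lysate IRAK4 quantified by MSD sandwich immunoassay. DC50 from three-parameter logistic fit, binned A (<0.01 μM) to D (>0.2 μM or not tested).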
# [1] = 4 hrs incubation, read-out: IRAK4 degradation in OCI-LY10 at 4 hrs: DC50
# [2] = 24 hrs incubation, read-out: IRAK4 degradation in OCI-LY10 at 24 hrs: DC50
SMILES,DC50 [1] [nM],DC50 [2] [nM]
Cn1c(=O)n(C2CCC(=O)NC2=O)c2ccc(F)c(N3CC(N4CCN([C@H]5CC[C@H](n6cc(NC(=O)c7cnn8ccc(N9C[C@H]%10C[C@@H]9CO%10)nc78)c(C(F)F)n6)CC5)CC4)C3)c21 (stereo partly drawn) [I-745],> 200,< 10
Cn1c(=O)n(C2CCC(=O)NC2=O)c2cccc(N3CCN([C@@H]4CCN(C[C@H]5CC[C@H](n6cc(NC(=O)c7cnn8ccc(N9CC%10(COC%10)C9)nc78)c(C(F)F)n6)CC5)CC4(F)F)CC3)c21 (stereo partly drawn) [I-746],> 200,> 200
Cn1c(=O)n(C2CCC(=O)NC2=O)c2cccc(N3CCN([C@H]4CCN(C[C@H]5CC[C@H](n6cc(NC(=O)c7cnn8ccc(N9CC%10(COC%10)C9)nc78)c(C(F)F)n6)CC5)CC4(F)F)CC3)c21 (stereo partly drawn) [I-747],> 200,> 200
Cn1c(=O)n(C2CCC(=O)NC2=O)c2cccc(N3CC(CN4CCN(C[C@H]5CC[C@H](n6cc(NC(=O)c7cnn8ccc(N9C[C@H]%10C[C@@H]9CO%10)nc78)c(C(F)F)n6)CC5)CC4)C3)c21 (stereo partly drawn) [I-748],> 200,> 200
Cn1c(=O)n(C2CCC(=O)NC2=O)c2cccc(C3CN([C@@H]4CCN([C@H]5CC[C@H](n6cc(NC(=O)c7cnn8ccc(N9C[C@H]%10C[C@@H]9CO%10)nc78)c(C(F)F)n6)CC5)CC4(F)F)C3)c21 (stereo partly drawn) [I-749],> 200,> 200
Cn1c(=O)n(C2CCC(=O)NC2=O)c2cccc(C3CN([C@H]4CCN([C@H]5CC[C@H](n6cc(NC(=O)c7cnn8ccc(N9C[C@H]%10C[C@@H]9CO%10)nc78)c(C(F)F)n6)CC5)CC4(F)F)C3)c21 (stereo partly drawn) [I-750],> 200,> 200
Cn1c(=O)n(C2CCC(=O)NC2=O)c2ccc(N3CC(N4CCN([C@H]5CC[C@H](n6cc(NC(=O)c7cnn8ccc(N9C[C@H]%10C[C@@H]9CO%10)nc78)c(C(F)F)n6)CC5)CC4)C3)c(F)c21 (stereo partly drawn) [I-751],> 200,> 200
Cn1c(=O)n(C2CCC(=O)NC2=O)c2ccc(C3CN(C4CCN([C@H]5CC[C@H](n6cc(NC(=O)c7cnn8ccc(N9C[C@H]%10C[C@@H]9CO%10)nc78)c(C(F)F)n6)CC5)CC4(F)F)C3)c(F)c21 (stereo partly drawn) [I-752],> 200,> 200
Cn1c(=O)n(C2CCC(=O)NC2=O)c2ccc(F)c(C3CN(C4CCN([C@H]5CC[C@H](n6cc(NC(=O)c7cnn8ccc(N9C[C@H]%10C[C@@H]9CO%10)nc78)c(C(F)F)n6)CC5)CC4(F)F)C3)c21 (stereo partly drawn) [I-753],> 200,> 200
Cn1c(=O)n(C2CCC(=O)NC2=O)c2cccc(OC3CCN([C@H]4CC[C@H](n5cc6cc(NC(=O)c7cccc(C(F)(F)F)n7)ccc6n5)CC4)CC3(F)F)c21 (stereo partly drawn) [I-754],> 200,> 200
Cn1c(=O)n(C2CCC(=O)NC2=O)c2cccc(OC3CCN([C@H]4CC[C@H](n5cc6cc(NC(=O)c7cccc(C(F)(F)F)n7)ncc6n5)CC4)CC3(F)F)c21 (stereo partly drawn) [I-755],> 200,> 200
Cn1c(=O)n(C2CCC(=O)NC2=O)c2cccc(OC3CCN([C@H]4CC[C@H](n5cc(NC(=O)c6cnn7ccc(N8C[C@H]9C[C@@H]8CO9)nc67)c(C(F)F)n5)CC4)CC3(F)F)c21 (stereo partly drawn) [I-756],> 200,> 200
Cn1c(=O)n(C2CCC(=O)NC2=O)c2cccc(C#CCN3CCC(C[C@H]4CC[C@H](n5cc(NC(=O)c6cnn7ccc(N8C[C@H]9C[C@@H]8CO9)nc67)c(C(F)F)n5)CC4)CC3)c21 (stereo partly drawn) [I-757],> 200,> 200
Cn1c(=O)n(C2CCC(=O)NC2=O)c2cccc(C#CCN3CCC(C[C@H]4CC[C@H](n5cc6cc(NC(=O)c7cccc(C(F)(F)F)n7)ccc6n5)CC4)CC3)c21 (stereo partly drawn) [I-758],> 200,> 200
Cn1c(=O)n(C2CCC(=O)NC2=O)c2cccc(C#CCN3CCC(C[C@H]4CC[C@H](n5cc6cc(NC(=O)c7cccc(C(F)(F)F)n7)ncc6n5)CC4)CC3)c21 (stereo partly drawn) [I-759],> 200,> 200
Cn1c(=O)n(C2CCC(=O)NC2=O)c2cccc(N3CC(C4CCN([C@H]5CC[C@@H](n6cc(NC(=O)c7cnn8ccc(N9C[C@H]%10C[C@@H]9CO%10)nc78)c(C(F)F)n6)CC5)CC4(F)F)C3)c21 (stereo partly drawn) [I-760],> 200,> 200
Cn1c(=O)n(C2CCC(=O)NC2=O)c2cccc(N3CC(C4CCN(C[C@H]5CC[C@H](n6cc(NC(=O)c7cnn8ccc(N9C[C@H]%10C[C@@H]9CO%10)nc78)c(C(F)F)n6)CC5)CC4(F)F)C3)c21 (stereo partly drawn) [I-761],> 200,> 200
Cn1c(=O)n(C2CCC(=O)NC2=O)c2cccc(N3CC(C4CCN([C@H]5CC[C@H](n6cc(NC(=O)c7cnn8ccc(N9C[C@H]%10C[C@@H]9CO%10)nc78)c(C(F)F)n6)CC5)CC4(F)F)C3)c21 (stereo partly drawn) [I-762],> 200,> 200

# Reference: patent US12091411B2, “IRAK degraders and uses thereof” (Kymera Therapeutics, Inc., priority 2022, dated 2024)
